The results in this text go back to patent US10723699B2 (Hyundai Pharm Co., Ltd., priority 2015, dated 2020).

This experiment addresses T1, G protein-coupled receptor 119 (GPR-119) (Mesocricetus auratus, UniProt A0A1U8CD06).
T1 construct: hamster-derived β-cells containing G protein-coupled receptor 119 (GPR-119), HIT-T15 cells; host or cells: HIT-T15 (hamster pancreatic β-cells)
T1 sequence (A0A1U8CD06 1-334): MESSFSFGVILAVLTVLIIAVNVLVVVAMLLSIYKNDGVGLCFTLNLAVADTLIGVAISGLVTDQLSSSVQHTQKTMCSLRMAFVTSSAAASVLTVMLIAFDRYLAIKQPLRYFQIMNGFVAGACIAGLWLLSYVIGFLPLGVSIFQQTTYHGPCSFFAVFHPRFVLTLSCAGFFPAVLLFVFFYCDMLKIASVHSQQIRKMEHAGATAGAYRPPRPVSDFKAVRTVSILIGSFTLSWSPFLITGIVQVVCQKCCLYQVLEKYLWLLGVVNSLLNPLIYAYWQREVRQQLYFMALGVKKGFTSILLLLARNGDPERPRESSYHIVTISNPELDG
The experiment in a line: cAMP activity in HIT-T15 cells (cAMP dynamic kit, FRET). The experiment is classed as cell-based, hamster. Put shortly: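 Hamster HIT-T15 cells (60,000/well) were treated next day with compound at six concentrations, 0.0032–10 μM, for 1 h at 37° C. Cells were then lysed and cAMP measured by competitive HTRF immunoassay (D2-cAMP, cryptate anti-cAMP). Activity was derived as the change in FRET signal relative to DMSO.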

Setting [1] is: 1 hour at 37° C., six concentrations 0.0032 to 10 μM, read-out: EC50.

SMILES strings stand for the structures. pEC50: −log10 of the molar value. Read-outs that look alike come from different tables or passages of the source. A value given as a limit tells only on which side of the number the result lay.

For the molecule `CC(C)(C)OC(=O)N1CCC(COc2ccc(C3=CCC(C(=O)N4CCc5ccccc5C4)CC3)cc2)CC1` (stereo not drawn) [Example 239, tert-butyl 4-((4-(4-(1,2,3,4-tetrahydroisoquinoline-2-carbonyl)cyclohex-1-enyl)phenoxy)methyl)piperidine-1-carboxylate], the pEC50 (usually the EC50 on a negative log10 scale, so that one unit is a factor of ten) (Table 2, read-out: EC50 value) is at least 7.30.

Take `CCc1cnc(N2CCC(COc3ccc(C4=CCC(C(=O)N5CC(O)C5)CC4)cc3F)CC2)nc1` (stereo not drawn) [Example 309, (4-(4-((1-(5-ethylpyrimidin-2-yl)piperidin-4-yl)methoxy)-3-fluorophenyl)cyclohex-3-enyl)(3-hydroxyazetidin-1-yl)methanone]: the pEC50 under setting [1] was 7.96 and the pEC50 (Table 2, read-out: EC50 value) is at least 7.30. On the same counts, the results for `CC(C)c1noc(N2CCC(COc3ccc(C4=CCC(C(=O)N5CCOCC5)CC4)c(F)c3)CC2)n1` (stereo not drawn) [Example 448, (4-(2-fluoro-4-((1-(3-isopropyl-1,2,4-oxadiazol-5-yl)piperidin-4-yl)methoxy)phenyl)cyclohex-3-enyl)(morpholino)methanone] are 7.60 and at least 7.30. Turning to `CCc1cnc(N2CCC(COc3ccc(C4=CCC(C(=O)N5CC(F)(F)C(F)(F)C5)CC4)c(F)c3)CC2)nc1` (single isomer, unassigned; (-)) [Example 463, (−)-(4-(4-((1-(5-ethylpyrimidin-2-yl)piperidin-4-yl)methoxy)-2-fluorophenyl)cyclohex-3-enyl)(3,3,4,4-tetrafluoropyrrolidin-1-yl)methanone], under setting [1], the pEC50 was 7.06. On to `CCc1cnc(N2CCC(COc3ccc(C4=CCC(C(=O)N5CCCC5)CC4)cn3)CC2)nc1` (stereo not drawn) [Example 349, (4-(6-((1-(5-ethylpyrimidin-2-yl)piperidin-4-yl)methoxy)pyridin-3-yl)cyclohex-3-enyl)(pyrrolidin-1-yl)methanone], for which the pEC50 was 7.57 under setting [1] and at least 7.30 (Table 2, read-out: EC50 value). `CCc1cnc(N2CCC(COc3ccc(C4=CCC(C(=O)N5CCC5)CC4)cc3F)CC2)nc1` (stereo not drawn) [Example 301, azetidin-1-yl(4-(4-((1-(5-ethylpyrimidin-2-yl)piperidin-4-yl)methoxy)-3-fluorophenyl)cyclohex-3-enyl)methanone]: the pEC50 is, setting by setting: under setting [1], 7.72; (Table 2, read-out: EC50 value) at least 7.30. In the case of `CCc1cnc(N2CCC(COc3ccc(C4=CCC(C(=O)N5CCC(C#N)CC5)CC4)cc3F)CC2)nc1` (stereo not drawn) [Example 321, 1-(4-(4-((1-(5-ethylpyrimidin-2-yl)piperidin-4-yl)methoxy)-3-fluorophenyl)cyclohex-3-enecarbonyl)piperidine-4-carbonitrile], the pEC50 runs as follows: under setting [1], 7.55; (Table 2, read-out: EC50 value) at least 7.30.

Consider `CCc1cnc(N2CCC(COc3ccc(C4=CCC(C(=O)NCC(C)(C)CO)CC4)cc3)CC2)nc1` (stereo not drawn) [Example 177, 4-(4-((1-(5-ethylpyrimidin-2-yl)piperidin-4-yl)methoxy)phenyl)-N-(3-hydroxy-2,2-dimethylpropyl)cyclohex-3-enecarboxamide], for which, under “Table 2, read-out: EC50 value”, the pEC50 was at least 7.30. `CC(C)c1noc(N2CCC(COc3ccc(C4=CCC(C(=O)N5CC(=NO)C5)CC4)cn3)CC2)n1` (stereo not drawn) [Example 337, (3-(hydroxyimino)azetidin-1-yl)(4-(6-((1-(3-isopropyl-1,2,4-oxadiazol-5-yl)piperidin-4-yl)methoxy)pyridin-3-yl)cyclohex-3-enyl)methanone]: the pEC50 under setting [1] is 6.80. Turning to `CC(C)c1noc(N2CCC(COc3ccc(C4=CCC(C(=O)N5CCC(CO)CC5)CC4)cc3F)CC2)n1` (stereo not drawn) [Example 333, (4-(3-fluoro-4-((1-(3-isopropyl-1,2,4-oxadiazol-5-yl)piperidin-4-yl)methoxy)phenyl)cyclohex-3-enyl)(4-(hydroxymethyl)piperidin-1-yl)methanone], the pEC50 under setting [1] is 7.52 and the pEC50 (Table 2, read-out: EC50 value) is at least 7.30. Take `CC(C)c1noc(N2CCC(COc3ccc(C4=CCC(C(=O)N5CCCC5)CC4)cn3)CC2)n1` (stereo not drawn) [Example 315, (4-(6-((1-(3-isopropyl-1,2,4-oxadiazol-5-yl)piperidin-4-yl)methoxy)pyridin-3-yl)cyclohex-3-enyl)(pyrrolidin-1-yl)methanone]: the pEC50 under setting [1] was 7.17. For the molecule `CCc1cnc(N2CCC(COc3ccc(C4=CCC(C(=O)N5CCSCC5)CC4)c(F)c3)CC2)nc1` (stereo not drawn) [Example 423, (4-(4-((1-(5-ethylpyrimidin-2-yl)piperidin-4-yl)methoxy)-2-fluorophenyl)cyclohex-3-enyl)(thiomorpholino)methanone], the pEC50 is 7.72 under setting [1] and at least 7.30 (Table 2, read-out: EC50 value).

Consider `CC(C)=CC(=O)N1CCC(COc2ccc(C3=CCC(C(=O)N4CCOCC4)CC3)cc2F)CC1` (stereo not drawn) [Example 451, 1-(4-((2-fluoro-4-(4-(morpholine-4-carbonyl)cyclohex-1-enyl)phenoxy)methyl)piperidin-1-yl)-3-methylbut-2-en-1-one], for which the pEC50 under setting [1] was 7.05. Regarding `O=C(Oc1ccccc1)N1CCC(COc2ccc(C3=CCC(C(=O)N4CCOCC4)CC3)cc2F)CC1` (stereo not drawn) [Example 445, phenyl 4-((2-fluoro-4-(4-(morpholine-4-carbonyl)cyclohex-1-enyl)phenoxy)methyl)piperidine-1-carboxylate], the pEC50 by setting is: under setting [1], 7.96; (Table 2, read-out: EC50 value) at least 7.30.

`CCc1cnc(N2CCC(COc3ccc(C4=CCC(C(=O)N5CCC(CO)CC5)CC4)cc3C#N)CC2)nc1` (stereo not drawn) [Example 391, 2-((1-(5-ethylpyrimidin-2-yl)piperidin-4-yl)methoxy)-5-(4-(4-(hydroxymethyl)piperidine-1-carbonyl)cyclohex-1-enyl)benzonitrile]: the negative-log EC50 (pEC50) is, setting by setting: under setting [1], 7.57; (Table 2, read-out: EC50 value) at least 7.30. With `CCc1cnc(N2CCC(COc3ccc(C4=CCC(C(=O)N5CCC(=NO)CC5)CC4)cc3F)CC2)nc1` (stereo not drawn) [Example 377, (4-(4-((1-(5-ethylpyrimidin-2-yl)piperidin-4-yl)methoxy)-3-fluorophenyl)cyclohex-3-enyl)(4-(hydroxyimino)piperidin-1-yl)methanone], the pEC50 by setting is: under setting [1], 7.96; (Table 2, read-out: EC50 value) at least 7.30. For the molecule `Cn1nnnc1N1CCC(COc2ccc(C3=CCC(C(=O)N4CCCC4)CC3)cc2F)CC1` (stereo not drawn) [Example 420, (4-(3-fluoro-4-((1-(1-methyl-1H-tetrazol-5-yl)piperidin-4-yl)methoxy)phenyl)cyclohex-3-enyl)(pyrrolidin-1-yl)methanone], the pEC50 under setting [1] is 6.96. For `CC(C)c1noc(N2CCC(COc3ccc(C4=CCC(C(=O)NC5CCCCC5)CC4)cc3F)CC2)n1` (stereo not drawn) [Example 366, N-cyclohexyl-4-(3-fluoro-4-((1-(3-isopropyl-1,2,4-oxadiazol-5-yl)piperidin-4-yl)methoxy)phenyl)cyclohex-3-enecarboxamide], the pEC50 reads like this: under setting [1], 7.41; (Table 2, read-out: EC50 value) at least 7.30.

Regarding `CCc1cnc(N2CCC(COc3ccc(C4=CCC(C(=O)N5CCC(=O)CC5)CC4)cc3F)CC2)nc1` (stereo not drawn) [Example 308, 1-(4-(4-((1-(5-ethylpyrimidin-2-yl)piperidin-4-yl)methoxy)-3-fluorophenyl)cyclohex-3-enecarbonyl)piperidin-4-one], the EC50 – broadly, the midpoint of the concentration-response curve – (EC50 (nM), 1 hour at 37° C., six concentrations 0.0032 to 10 μM) stood at 23 nM. Besides, the pEC50 (EC50 value, Table 2) is at least 7.30. As for `CC(C)c1noc(N2CCC(COc3ccc(C4=CCC(C(=O)NCC(C)(C)CO)CC4)cc3F)CC2)n1` (stereo not drawn) [Example 371, 4-(3-fluoro-4-((1-(3-isopropyl-1,2,4-oxadiazol-5-yl)piperidin-4-yl)methoxy)phenyl)-N-(3-hydroxy-2,2-dimethylpropyl)cyclohex-3-enecarboxamide], the pEC50 reads like this: under setting [1], 7.41; (Table 2, read-out: EC50 value) at least 7.30. On to `CCc1cnc(N2CCC(COc3ccc(C4=CCC(C(=O)N5CCC(C(F)(F)F)CC5)CC4)cc3F)CC2)nc1` (stereo not drawn) [Example 456, (4-(4-((1-(5-ethylpyrimidin-2-yl)piperidin-4-yl)methoxy)-3-fluorophenyl)cyclohex-3-enyl)(4-(trifluoromethyl)piperidin-1-yl)methanone], for which the pEC50 is 7.74 under setting [1] and at least 7.30 (Table 2, read-out: EC50 value). With `CC(C)c1noc(N2CCC(COc3ccc(C4=CCC(C(=O)N5CCOCC5)CC4)cn3)CC2)n1` (stereo not drawn) [Example 317, (4-(6-((1-(3-isopropyl-1,2,4-oxadiazol-5-yl)piperidin-4-yl)methoxy)pyridin-3-yl)cyclohex-3-enyl)(morpholino)methanone], the pEC50 under setting [1] is 7.30 and the negative logarithm of the EC50 (pEC50) (Table 2, read-out: EC50 value) is at least 7.30. Regarding `CC(C)c1noc(N2CCC(COc3ccc(C4=CCC(C(=O)N5CC[C@H](F)C5)CC4)cc3F)CC2)n1` (stereo partly drawn) [Example 95, (4-(3-fluoro-4-((1-(3-isopropyl-1,2,4-oxadiazol-5-yl)piperidin-4-yl)methoxy)phenyl)cyclohex-3-enyl)((S)-3-fluoropyrrolidin-1-yl)methanone], the pEC50 (Table 2, read-out: EC50 value) is at least 7.30.

In the case of `CCc1cnc(N2CCC(COc3ccc(C4=CCC(C(=O)N5CCC[C@H]5CO)CC4)cc3)CC2)nc1` (single isomer, unassigned; (+)) [Example 466], the pEC50 under setting [1] is 7.92 and the pEC50 (Table 2, read-out: EC50 value) was at least 7.30. Take `CCc1cnc(N2CCC(COc3ccc(C4=CCC(C(=O)N5CC(F)(F)C(F)(F)C5)CC4)cc3F)CC2)nc1` (stereo not drawn) [Example 460, (4-(4-((1-(5-ethylpyrimidin-2-yl)piperidin-4-yl)methoxy)-3-fluorophenyl)cyclohex-3-enyl)(3,3,4,4-tetrafluoropyrrolidin-1-yl)methanone]: the pEC50 is 7.92 under setting [1] and at least 7.30 (Table 2, read-out: EC50 value).
